Legend:
Male Sprague-Dawley rats = assay: Serum biochemical analysis in DMN-induced rat hepatic fibrosis model; type: in vivo; details: DMN-treatment, mean ± SD; for PT (prothrombin time): rat blood; for ACP (acid phosphatase) / AFP (a-fetoprotein) / AKP (alkaline phosphatase) / Albumin / BUN (blood urea nitrogen) / Bilirubin (total bilirubin) / CHOL (cholesterol) / GOT (glutamic oxaloacetic transaminase) / GPT (glutamic pyruvic transaminase) / Globulin / LDH (lactate dehydrogenase): rat serum
Procedure: (§1) A rat hepatic fibrosis model was set up through the use of DMN. DMN is a potent hepatoxin that specifically targets the liver and can cause liver fibrosis. The histopathological changes resulting from DMN treatment involve the rapid deposition of collagen, the major protein of fibrosis and important to the process of cirrhosis. […] The DMN-induced liver fibrosis model was performed as described in Jezequel A. M. et al. (14). Male Sprague-Dawley rats (Slc:SD; Japan SLC, Shizuoka, Japan), weighing from 300 to 350 grams, were used in the experiments. To induce hepatic fibrosis over a six-week time course experiment, the rats were given DMN (Sigma, Saint Louis, Mo.), dissolved in normal saline, three consecutive days a week for the first three consecutive weeks at the dosage of 6.7 mg/kg per body weight by intraperitoneal injection. Injection time points are shown as inverted triangles in FIG. 1. Injections were at a much lower dosage than those used in other experiments where the dosage was 100 mg/kg/day. The higher dosage can cause toxicity in rat liver (21, 22).)
(§2) Two to seven rats at each time point were treated with either DMN or with an equal volume of normal saline without DMN as the control (26 DMN-treated rats and 24 control rats). Rats were weighed and sacrificed on days 11, 18, 25, 32, 39, and 46 (sacrifice time points are shown as triangles in FIG. 1A) respectively. These triangular time points were designated as weeks 1 through 6 (FIG. 1A).
The serum of each rat, 50 rats in total, was subjected to various biochemical examinations related to liver damages. Blood samples, collected from the animals at necropsy, were used to measure serum concentrations or activity of albumin, glutamic oxaloacetic transaminase (GOT), glutamic pyruvic transaminase (GPT), total bilirubin, alkaline phosphatase (AKP), acid phosphatases (ACP), α-fetoprotein (AFP), blood urea nitrogen (BUN), cholesterol (CHOL), lactate dehydrogenase (LDH), globulin, prothrombin time (PT) and blood platelets (PLT) using an Hitachi 747 and ACL 3000 clinical chemistry analyzer system (MYCO, Renton, Wash.). […] The thirteen serum markers identified in these experiments are the same serum markers for human liver fibrosis.

rat liver = assay: Histopathological examination of DMN-induced liver damage; type: in vivo
Procedure: as §1, §2
Liver tissues were immediately removed after sacrifice and subject to histopathological examination. The fixed liver samples were then processed for paraffin embedding. Five micrometer (5 μm) sections were prepared for hematoxylin and eosin staining (to score necroinflammatory and fatty changes) and for Sirius red/fast green collagen staining (to score for fibrosis) (23). The fatty changes were classified as presence (+) or absence (−).
In FIG. 2A, the representative phenotypes of the DMN-induced rat liver fibrosis were characterized by scoring the four histopathological features (necrosis, inflammation, fibrosis, and fatty change) as follows: the necrosis scores were from N0 to N3 (the first panel), and the inflammation scores were from I0 to I3. The scoring system for examining the intensity of liver fibrosis was modified from the scoring system of the Hepatitis Activity Index (HAI) (29, 30). Fibrosis was divided into four scores: normal (F0), fibrous expansion of portal tracts (F1), bridging fibrosis (F2) and frequent bridging fibrosis with focal nodule formation (F3). The fatty change was scored as present (+) or absent (−), respectively (the last panel). The images of the fatty change are shown at 200× magnification, whereas the others are shown at 100× magnification (FIG. 2A).
The results were ranked by time course. The necroinflammatory scores were the sum of the necrosis and inflammation scores and range from A0 to A6. The necroinflammatory change was divided into three grades: A0=none, A(1-3)=mild and A(4-6)=moderate necroinflammation. The fibrosis change was divided into two grades: F(0-1)=normal to fibrous expansion of portal tracts, F(2-3)=bridge fibrosis to frequent bridging fibrosis with nodule formation. The fatty change was shown as presence (+) or absence (−). The number of rats was counted and used to calculate the percentage of each histopathological level at each time point.

CN(C)N=O [DMN, Dimethylnitrosamine]
PT (prothrombin time) (Male Sprague-Dawley rats; 1-2 wk): 18 ± 4 (8) sec | PT (prothrombin time) (Male Sprague-Dawley rats; 3-4 wk): 20 ± 4 (9) sec | PT (prothrombin time) (Male Sprague-Dawley rats; 5-6 wk): 22 ± 5 (6) sec | ACP (acid phosphatase) (Male Sprague-Dawley rats; 1-2 wk): 1.9 ± 0.6 (4) mg/dl | AFP (a-fetoprotein) (Male Sprague-Dawley rats; 1-2 wk): 0.40 ± 0.19 (4) ng/dl | AKP (alkaline phosphatase) (Male Sprague-Dawley rats; 1-2 wk): 600.8 ± 93.0 (4) KA | Albumin (Male Sprague-Dawley rats; 1-2 wk): 3.9 ± 0.7 (7) g/dl | BUN (blood urea nitrogen) (Male Sprague-Dawley rats; 1-2 wk): 33 ± 4 (4) mg/dl | Bilirubin (total bilirubin) (Male Sprague-Dawley rats; 1-2 wk): 0.72 ± 0.53 (8) mg/dl | CHOL (cholesterol) (Male Sprague-Dawley rats; 1-2 wk): 77 ± 8 (4) mg/dl | GOT (glutamic oxaloacetic transaminase) (Male Sprague-Dawley rats; 1-2 wk): 661.5 ± 134.4 (8) U/l | GPT (glutamic pyruvic transaminase) (Male Sprague-Dawley rats; 1-2 wk): 459.5 ± 78.5 (8) U/l | Globulin (Male Sprague-Dawley rats; 1-2 wk): 6.7 ± 0.1 (2) g/dl | LDH (lactate dehydrogenase) (Male Sprague-Dawley rats; 1-2 wk): 414.8 ± 102.7 (4) IU/l | ACP (acid phosphatase) (Male Sprague-Dawley rats; 3-4 wk): 6.2 ± 1.1 (4) mg/dl | AFP (a-fetoprotein) (Male Sprague-Dawley rats; 3-4 wk): 0.38 ± 0.05 (4) ng/dl | AKP (alkaline phosphatase) (Male Sprague-Dawley rats; 3-4 wk): 668.3 ± 222.0 (3) KA | Albumin (Male Sprague-Dawley rats; 3-4 wk): 3.5 ± 0.6 (11) g/dl | BUN (blood urea nitrogen) (Male Sprague-Dawley rats; 3-4 wk): 36 ± 2 (4) mg/dl | Bilirubin (total bilirubin) (Male Sprague-Dawley rats; 3-4 wk): 1.01 ± 0.74 (11) mg/dl | CHOL (cholesterol) (Male Sprague-Dawley rats; 3-4 wk): 70 ± 13 (6) mg/dl | GOT (glutamic oxaloacetic transaminase) (Male Sprague-Dawley rats; 3-4 wk): 1006.1 ± 749.6 (11) U/l | GPT (glutamic pyruvic transaminase) (Male Sprague-Dawley rats; 3-4 wk): 566.6 ± 313.5 (11) U/l | Globulin (Male Sprague-Dawley rats; 3-4 wk): 5.0 ± 0.8 (4) g/dl | LDH (lactate dehydrogenase) (Male Sprague-Dawley rats; 3-4 wk): 562.0 ± 120.8 (3) IU/l | ACP (acid phosphatase) (Male Sprague-Dawley rats; 5-6 wk): 8.2 ± 0.6 (2) mg/dl | AFP (a-fetoprotein) (Male Sprague-Dawley rats; 5-6 wk): 0.35 ± 0.07 (2) ng/dl | AKP (alkaline phosphatase) (Male Sprague-Dawley rats; 5-6 wk): 468 ± 12.7 (2) KA | Albumin (Male Sprague-Dawley rats; 5-6 wk): 3.2 ± 0.1 (7) g/dl | BUN (blood urea nitrogen) (Male Sprague-Dawley rats; 5-6 wk): 31 ± 5 (2) mg/dl | Bilirubin (total bilirubin) (Male Sprague-Dawley rats; 5-6 wk): 1.13 ± 1.00 (7) mg/dl | CHOL (cholesterol) (Male Sprague-Dawley rats; 5-6 wk): 67 ± 18 (5) mg/dl | GOT (glutamic oxaloacetic transaminase) (Male Sprague-Dawley rats; 5-6 wk): 1572.9 ± 965.3 (7) U/l | GPT (glutamic pyruvic transaminase) (Male Sprague-Dawley rats; 5-6 wk): 763.6 ± 405.2 (7) U/l | Globulin (Male Sprague-Dawley rats; 5-6 wk): 3.6 ± 0.3 (2) g/dl | LDH (lactate dehydrogenase) (Male Sprague-Dawley rats; 5-6 wk): 853.5 ± 91.2 (2) IU/l | abnormality in the kidney or spleen (rat liver; DMN-treated rats, data not shown): no clear abnormality | DMN-treated rats with none (F0) or low levels of fibrosis (F1) (rat liver; first two weeks, 6.7 mg/kg i.p.): seventy-five | DMN-treated rats with F2 and F3 fibrosis (rat liver; last two weeks): 78% | treated rats with fatty changes present (rat liver; six-week time course): 3.7% | DMN-treated rats with high levels of fibrosis (F2 to F3) (rat liver; third to fourth week): ~90%

— patent US7972785B2, “Biomarkers for liver fibrotic injury” (Industrial Technology Research Institute (ITRI), priority 2006, dated 2011)
